Experimental data as given in ChEMBL document CHEMBL1159206, “Synthesis and biological activity of esters in the trans-1,2-dihydroxy-1,2-dihydroacronycine series” (J Nat Prod, 1998).
pIC50: −log10 of the molar value.

What was measured:
L1210 = experiment: Cytotoxicity against mouse L1210 cells after 48 hrs by […] assay; assay type: functional, cell-based; conditions: L1210, 48 h
P388 [1] = experiment: Antitumor activity against mouse P388 cells implanted in B6D2F1 mouse assessed as median survival time at 25 mg/kg, ip relative to control; assay type: functional; conditions: route intraperitoneal
P388 [2] = experiment: Antitumor activity against mouse P388 cells implanted in B6D2F1 mouse assessed as median survival time at 0.78 mg/kg, ip relative to control; assay type: functional; conditions: route intraperitoneal
P388 [3] = experiment: Antitumor activity against mouse P388 cells implanted in B6D2F1 mouse assessed as median survival time at 1.56 mg/kg, ip relative to control; assay type: functional; conditions: route intraperitoneal
P388 [4] = experiment: Antitumor activity against mouse P388 cells implanted in B6D2F1 mouse assessed as median survival time at 3.125 mg/kg, ip relative to control; assay type: functional; conditions: route intraperitoneal
P388 [5] = experiment: Antitumor activity against mouse P388 cells implanted in B6D2F1 mouse assessed as median survival time at 6.25 mg/kg, ip relative to control; assay type: functional; conditions: route intraperitoneal
P388 [6] = experiment: Antitumor activity against mouse P388 cells implanted in B6D2F1 mouse assessed as median survival time at 12.5 mg/kg, ip relative to control; assay type: functional; conditions: route intraperitoneal
P388 [7] = experiment: Antitumor activity against mouse P388 cells implanted in B6D2F1 mouse assessed as median survival time at 200 mg/kg, ip relative to control; assay type: functional; conditions: route intraperitoneal

SMILES: COc1cc2c(c3c1c(=O)c1ccccc1n3C)C(=O)C(O)C(C)(C)O2 (racemic)
- pIC50 (L1210): 4.12

SMILES: COc1cc2c(c3c1c(=O)c1ccccc1n3C)[C@@H](O)[C@H](OC(=O)CCl)C(C)(C)O2 (racemic)
- pIC50 (L1210): 4.96

SMILES: COc1cc2c(c3c1c(=O)c1ccccc1n3C)[C@@H](OC(C)=O)[C@@H](OC(C)=O)C(C)(C)O2 (relative stereo)
- T/C (P388 [1]): 268%

SMILES: COc1cc2c(c3c1c(=O)c1ccccc1n3C)[C@@H](OC(C)=O)[C@H](OC(C)=O)C(C)(C)O2 (racemic)
- pIC50 (L1210): 5.06
- T/C (P388 [2]): 122%
- T/C (P388 [3]): 136%
- T/C (P388 [4]): 155%
- T/C (P388 [5]): 160%
- T/C (P388 [6]): 181%
- T/C (P388 [1]): 77%

SMILES: COc1cc2c(c3c1c(=O)c1ccccc1n3C)[C@@H](O)[C@H](OC(C)=O)C(C)(C)O2 (racemic)
- pIC50 (L1210): 5.06

SMILES: COc1cc2c(c3c1c(=O)c1ccccc1n3C)C(=O)C(O)(CC(C)=O)C(C)(C)O2 (racemic)
- pIC50 (L1210): 4.65

SMILES: COc1cc2c(c3c1c(=O)c1ccccc1n3C)C=CC(C)(C)O2 [ACRONINE]
- pIC50 (L1210): 4.60
- T/C (P388 [7]): 125%
